Data: patent US10206893B2, “Immunoregulatory agents” (Flexus Biosciences, Inc., priority 2014, dated 2019)
pIC50: −log10 of the molar value.

What follows are molecules tested against T1, human IDO1 (Homo sapiens, UniProt P14902) (assay: IDO inhibition assay in HEK293 cells stably expressing human IDO1 (kynurenine, Ehrlich reagent)). Conditions: 20 hours incubation, read-out: HEK Human IDO-1 Bio Activity.
T1 construct: expressed in transfected cells
Format: cell-based
Protocol: They were cultured in medium (DMEM with 10% FBS) containing 1 mg/ml G418 for two weeks.
The human IDO1/HEK293 cells were seeded at 10,000 cells per 50 μL per well with RPMI/phenol red free media contains 10% FBS in a 384-well black wall clear bottom tissue culture plate (Matrix Technologies LLC) 100 nL of certain concentration of compound was then added to each well using ECHO liquid handling systems. The cells were incubated for 20 hours in 37° C. incubator with 5% CO2.
The compound treatments were stopped by adding trichloroacetic acid (Sigma-Aldrich) to a final concentration at 0.2%. The cell plate was further incubated at 50° C. for 30 minute. The equal volume supernatant (20 μL) and 0.2% (w/v) Ehrlich reagent (4-dimethylaminobenzaldehyde, Sigma-Aldrich) in glacial acetic acid were mixed in a new clear bottom 384-well plate. This plate was then incubated at room temperature for 30 minute. The absorbance at 490 nm was measured on Envision plate reader.

T1 sequence (P14902 whole entry): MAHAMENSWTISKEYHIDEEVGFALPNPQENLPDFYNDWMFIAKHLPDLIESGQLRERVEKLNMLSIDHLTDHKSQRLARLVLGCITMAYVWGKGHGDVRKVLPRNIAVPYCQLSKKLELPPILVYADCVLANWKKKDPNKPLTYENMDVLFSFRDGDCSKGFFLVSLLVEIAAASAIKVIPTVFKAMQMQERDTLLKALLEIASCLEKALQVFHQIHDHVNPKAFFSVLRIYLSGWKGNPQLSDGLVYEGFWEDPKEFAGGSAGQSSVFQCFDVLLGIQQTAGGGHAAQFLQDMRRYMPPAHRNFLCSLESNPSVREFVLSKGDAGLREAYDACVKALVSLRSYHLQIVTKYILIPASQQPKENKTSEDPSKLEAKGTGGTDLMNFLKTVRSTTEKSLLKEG

| SMILES | pIC50 |
| --- | --- |
| Cc1c(C2CCC(C(C)NC(=O)c3ccc(Cl)cc3)CC2)ccnc1F (single isomer, unassigned) [Example 158b, 4-chloro-N-(1-(4-(2-fluoro-3-methylpyridin-4-yl)cyclohexyl)ethyl)benzamide] | > 7.30 |
| Cc1c(C2CCC(C(C)NC(=O)c3ccc(Cl)cc3)CC2)ccnc1F (single isomer, unassigned) [Example 158c, 4-chloro-N-(1-(4-(2-fluoro-3-methylpyridin-4-yl)cyclohexyl)ethyl)benzamide] | > 7.30 |
| Cc1c(C2CCC(C(C)NC(=O)c3ccc(Cl)cc3)CC2)ccnc1F (single isomer, unassigned) [Example 158d, 4-chloro-N-(1-(4-(2-fluoro-3-methylpyridin-4-yl)cyclohexyl)ethyl)benzamide] | > 7.30 |
| Cc1c(C2CCC(C(C)NC(=O)c3ccc(Cl)cc3)CC2)ccnc1F (single isomer, unassigned) [Example 158e, 4-chloro-N-(1-(4-(2-fluoro-3-methylpyridin-4-yl)cyclohexyl)ethyl)benzamide] | > 5.70 |
| Cc1nccc(C2CCC(C(C)NC(=O)c3ccc(Cl)cc3)CC2)c1C (single isomer, unassigned) [Example 159b, 4-chloro-N-(1-(4-(2,3-dimethylpyridin-4-yl)cyclohexyl)ethyl)benzamide] | > 6.60 |
| Cc1nccc(C2CCC(C(C)NC(=O)c3ccc(Cl)cc3)CC2)c1C (single isomer, unassigned) [Example 159c, 4-chloro-N-(1-(4-(2,3-dimethylpyridin-4-yl)cyclohexyl)ethyl)benzamide] | > 7.30 |
| Cc1nccc(C2CCC(C(C)NC(=O)c3ccc(Cl)cc3)CC2)c1C (single isomer, unassigned) [Example 159d, 4-chloro-N-(1-(4-(2,3-dimethylpyridin-4-yl)cyclohexyl)ethyl)benzamide] | > 7.30 |
| Cc1nccc(C2CCC(C(C)NC(=O)c3ccc(Cl)cc3)CC2)c1C (single isomer, unassigned) [Example 159e, 4-chloro-N-(1-(4-(2,3-dimethylpyridin-4-yl)cyclohexyl)ethyl)benzamide] | > 5.70 |
| Cc1cnccc1C1CCC(C(C)NC(=O)c2ccc(Cl)cc2)CC1 (single isomer, unassigned) [Example 160b, 4-chloro-N-(1-(4-(3-methylpyridin-4-yl)cyclohexyl)ethyl)benzamide] | > 5.70 |
| Cc1cnccc1C1CCC(C(C)NC(=O)c2ccc(Cl)cc2)CC1 (single isomer, unassigned) [Example 160c, 4-chloro-N-(1-(4-(3-methylpyridin-4-yl)cyclohexyl)ethyl)benzamide] | > 5.70 |
| Cc1cnccc1C1CCC(C(C)NC(=O)c2ccc(Cl)cc2)CC1 (single isomer, unassigned) [Example 160d, 4-chloro-N-(1-(4-(3-methylpyridin-4-yl)cyclohexyl)ethyl)benzamide] | > 6.60 |
| Cc1cnccc1C1CCC(C(C)NC(=O)c2ccc(Cl)cc2)CC1 (single isomer, unassigned) [Example 160e, 4-chloro-N-(1-(4-(3-methylpyridin-4-yl)cyclohexyl)ethyl)benzamide] | > 7.30 |
| CC(NC(=O)c1ccc(Cl)cc1)C1CCC(c2ccncc2F)CC1 (single isomer, unassigned) [Example 161a, 4-chloro-N-(1-(4-(3-fluoropyridin-4-yl)cyclohexyl)ethyl)benzamide] | > 5.70 |
| CC(NC(=O)c1ccc(Cl)cc1)C1CCC(c2ccncc2F)CC1 (single isomer, unassigned) [Example 161b, 4-chloro-N-(1-(4-(3-fluoropyridin-4-yl)cyclohexyl)ethyl)benzamide] | > 7.30 |
| CC(NC(=O)c1ccc(Cl)cc1)C1CCC(c2ccncc2F)CC1 (single isomer, unassigned) [Example 161c, 4-chloro-N-(1-(4-(3-fluoropyridin-4-yl)cyclohexyl)ethyl)benzamide] | > 6.60 |

Each molecule was assayed against T2, indoleamine 2,3-dioxygenase (IDO) (Homo sapiens, UniProt P14902) (assay: HeLa cell-based indoleamine 2,3-dioxygenase (IDO) assay (IFNγ-induced kynurenine production)). Conditions: Tables 3-7; compounds shown only as drawings; read-out: Potency (IDO IC50).
T2 construct: host or cells: HeLa cells, IDO induced with IFNγ (25 ng/mL)
T2 sequence (P14902 whole entry): as above
Protocol: Assessment of inhibitor activity in HeLa cell-based indoleamine 2,3-dioxygenase (IDO) assay.
HeLa (ATCC® CCL-2) cells were obtained from the ATCC® and cultured in Dulbecco's Modified Eagle Medium supplemented with 4.5 g/L glucose, […] (#10-013-CV, Corning), 2 mM L-alanyl-L-glutamine dipeptide (#35050-061, Gibco), 100 U/mL penicillin, 100 μg/mL streptomycin (#SV30010, HyClone) and 10% fetal bovine serum (#SH30071.03 HyClone). Cells were maintained in a humidified incubator at 37° C. in 5% CO2.
IDO activity was assessed as a function of kynurenine production as follows: HeLa cells were seeded in a 96-well culture plate at a density of 5,000 cells/well and allowed to equilibrate overnight. After 24 hours, the media was aspirated and replaced with media containing IFNγ (#285-IF/CF, R&D Systems) at a final concentration of 25 ng/mL. A serial dilution of each test compound was added to the cells in a total volume of 200 μL of culture medium. After a further 48 hour incubation, 170 μL of supernatant was transferred from each well to a fresh 96-well plate. 12.1 μL of 6.1N trichloroacetic acid (#T0699, Sigma-Aldrich) was added to each well and mixed, followed by incubation at 65° C. for 20 minutes to hydrolyze N-formylkynurenine, the product of indoleamine 2,3-dioxygenase, to kynurenine. The reaction mixture was then centrifuged for 10 mins at 500×g to sediment the precipitate. 100 μL of the supernatant was transferred from each well to a fresh 96-well plate. 100 μl of 2% (w/v) p-dimethylaminobenzaldehyde (#15647-7, Sigma-Aldrich) in acetic acid (#A6283, Sigma-Aldrich) was added to each well mixed and incubated at room temperature for 20 mins. Kynurenine concentrations were determined by measuring absorbance at 480 nm and calibrating against an L-kynurenine (#K8625, Sigma-Aldrich) standard curve using a SPECTRAMAX® M2e microplate reader (Molecular Devices). The percentage activity at each inhibitor concentration was determined and IC50 values assessed using nonlinear regression.
Activity for compounds described herein is provided in Tables 3-7, wherein potency levels are provided as follows: (Potency: IDO IC50: A<0.1 μM; B<1 μM; C<10 μM)

| SMILES | pIC50 |
| --- | --- |
| O=C(Nc1ccc(Cl)cc1)[C@H]1CC[C@@H](Cc2ccccc2)CC1 | > 5.70 |
| O=C(Nc1ccc(Cl)cc1)[C@H]1CC[C@H](Cc2ccccc2)CC1 | > 5.70 |
| N#Cc1ccc(NC(=O)[C@H]2CC[C@@H](Cc3ccccc3)CC2)cc1 | > 5.70 |
| N#Cc1ccc(NC(=O)[C@H]2CC[C@H](Cc3ccccc3)CC2)cc1 | > 5.70 |
| O=C(Nc1ccc(F)cc1)[C@H]1CC[C@@H](Cc2ccccc2)CC1 | > 5.70 |
| O=C(Nc1ccc(F)cc1)[C@H]1CC[C@H](Cc2ccccc2)CC1 | > 5.70 |
| COc1ccc(NC(=O)[C@H]2CC[C@@H](Cc3ccccc3)CC2)cc1 | > 5.70 |
| COc1ccc(NC(=O)[C@H]2CC[C@H](Cc3ccccc3)CC2)cc1 | > 5.70 |
| COc1ccc(C2CCC(CC(=O)NCc3ccccc3)CC2)cc1 (centres unmarked) | > 5.70 |
| COc1ccc([C@H]2CC[C@@H](CC(=O)NCc3ccccc3)CC2)cc1 | > 6.60 |
| N#Cc1ccc(C(=O)NC[C@H]2CC[C@@H](c3ccccc3)CC2)cc1 | > 6.60 |
| O=S(=O)(NC[C@H]1CC[C@@H](c2ccccc2)CC1)c1ccc(Cl)cc1 | > 6.60 |
| N#Cc1cccc(C(=O)NC[C@H]2CC[C@@H](c3ccccc3)CC2)c1 | > 7.30 |
| O=C(c1ccc(Cl)cc1)N1CCC(Cc2ccccc2)CC1 | > 5.70 |
| O=C(NC[C@H]1CC[C@@H](c2ccccc2)CC1)c1ccc(Cl)cc1 | > 6.60 |
| O=C(c1cccc(Cl)c1)N1CCC(Cc2ccccc2)CC1 | > 5.70 |
| O=C(NC[C@H]1CC[C@@H](c2ccccc2)CC1)c1cccc(Cl)c1 | > 7.30 |
| O=C(NC[C@H]1CC[C@@H](c2ccccc2)CC1)c1ccc(F)cc1 | > 7.30 |
| COc1ccc([C@H]2CC[C@@H](CCNc3ccc(Cl)cc3)CC2)cc1 | > 6.60 |

| SMILES | pIC50 |
| --- | --- |
| COc1ccc([C@H]2CC[C@H](CCNc3ccc(Cl)cc3)CC2)cc1 | > 5.70 |
| O=C(Nc1ccc(Cl)cc1)O[C@H]1CC[C@@H](c2ccccc2)C1 | > 5.70 |
| O=C(Nc1ccc(F)cc1)OC[C@H]1CC[C@@H](c2ccccc2)CC1 | > 5.70 |
| O=C(Nc1ccc(F)cc1)N[C@H]1CC[C@H](c2ccccc2)CC1 | > 7.30 |
| O=C(Nc1cccc(Cl)c1)N[C@H]1CC[C@@H](c2ccccc2)CC1 | > 6.60 |
| O=C(Nc1ccc(Cl)cc1)N[C@H]1CC[C@H](c2ccccc2)CC1 | > 7.30 |
| O=C(Cc1ccc(Cl)cc1)N[C@H]1CC[C@@H](c2ccccc2)CC1 | > 5.70 |
| O=C(Nc1cccc(Cl)c1)N[C@H]1CC[C@H](c2ccccc2)CC1 | > 7.30 |
| O=C(Nc1ccc(Cl)cc1)N[C@H]1CC[C@@H](c2ccccc2)CC1 | > 6.60 |
| O=C(Cc1cccc(Cl)c1)N[C@H]1CC[C@H](c2ccccc2)CC1 | > 7.30 |
| O=C(Nc1ccc(Cl)cc1)N1CCC(Oc2ccccc2)CC1 | > 5.70 |
| O=C(Nc1ccc(Cl)cc1)C1CCC(Oc2ccccc2)CC1 (centres unmarked) | > 6.60 |
| COc1ccc([C@H]2CC[C@H](NC(=O)Cc3ccc(Cl)cc3)CC2)cc1 | > 6.60 |
| O=S(=O)(CC1CCC(c2ccnc3ccccc23)CC1)Nc1ccc(Cl)cc1 (centres unmarked) | > 7.30 |
| COc1ccc(C2CCC(CC(Nc3ccc(F)cc3)C(F)(F)F)CC2)cc1 (centres unmarked) | > 7.30 |
| COc1ccc(C2CCC(CC(Nc3ccc(Cl)cc3)C(F)(F)F)CC2)cc1 (centres unmarked) | > 7.30 |
| N#Cc1ccc(CC(=O)N[C@H]2CC[C@H](c3ccccc3)CC2)cc1 | > 6.60 |
| CC(C(=O)N[C@H]1CC[C@H](c2ccccc2)CC1)c1ccc(C#N)cc1 (some centres unmarked) | > 7.30 |
| O=C(Cc1ccc(Cl)cc1)N[C@H]1CC[C@H](c2ccnc3ccccc32)CC1 | > 6.60 |
